The term IC50 denotes the concentration needed to halve the response being measured. Read a high IC50 as weaker potency in that assay. As usually defined, the melting point is the temperature, or range, at which the solid turns liquid.

A value given as a limit tells only on which side of the number the result lay.

The test system of one data set is MCF-7 cancer cell lines. Put plainly: MTT antiproliferative assay, MCF-7. The format is cell-based, human.
The next data set relates to A549 cancer cell lines. Put plainly: MTT antiproliferative assay, A549. In kind it is cell-based, human. In general terms: Tetrazolium dyes change colour on reduction, which living cells bring about.
A further data set deals with HepG2 cancer cell lines. Put plainly: MTT antiproliferative assay, HepG2. The format is cell-based, human.
Another data set addresses mTOR (Homo sapiens, UniProt P42345). Put plainly: Kinase-Glo Luminescent Kinase Assay, mTOR. The format is biochemical. As to conditions: average of two separate determinations.
The next data set has as its target PI3Kα (Homo sapiens, UniProt P42336). Put plainly: Kinase-Glo Luminescent Kinase Assay, PI3Kα. As to conditions: average of two separate determinations. In kind it is biochemical. How it is done:
The experiment was conducted according to the method reported by our research group.[17]
On the technique in general: In Kinase-Glo more light means more ATP remaining.

Setting [1] is: Table 2, average of two separate determinations.
The mark [2] stands for this setting: Homo sapiens, MCF7, Table 2, average of two separate determinations.
Where [3] appears, read: Homo sapiens, A549, Table 2, average of two separate determinations.
Where [4] appears, read: Homo sapiens, HepG2, Table 2, average of two separate determinations.
The mark [5] stands for this setting: Homo sapiens, MCF7, Table 1, average of two separate determinations.
Setting [6] is: Homo sapiens, A549, Table 1, average of two separate determinations.
[7] abbreviates: Homo sapiens, HepG2, Table 1, average of two separate determinations.

Chain of PI3Kα (P42336 whole entry): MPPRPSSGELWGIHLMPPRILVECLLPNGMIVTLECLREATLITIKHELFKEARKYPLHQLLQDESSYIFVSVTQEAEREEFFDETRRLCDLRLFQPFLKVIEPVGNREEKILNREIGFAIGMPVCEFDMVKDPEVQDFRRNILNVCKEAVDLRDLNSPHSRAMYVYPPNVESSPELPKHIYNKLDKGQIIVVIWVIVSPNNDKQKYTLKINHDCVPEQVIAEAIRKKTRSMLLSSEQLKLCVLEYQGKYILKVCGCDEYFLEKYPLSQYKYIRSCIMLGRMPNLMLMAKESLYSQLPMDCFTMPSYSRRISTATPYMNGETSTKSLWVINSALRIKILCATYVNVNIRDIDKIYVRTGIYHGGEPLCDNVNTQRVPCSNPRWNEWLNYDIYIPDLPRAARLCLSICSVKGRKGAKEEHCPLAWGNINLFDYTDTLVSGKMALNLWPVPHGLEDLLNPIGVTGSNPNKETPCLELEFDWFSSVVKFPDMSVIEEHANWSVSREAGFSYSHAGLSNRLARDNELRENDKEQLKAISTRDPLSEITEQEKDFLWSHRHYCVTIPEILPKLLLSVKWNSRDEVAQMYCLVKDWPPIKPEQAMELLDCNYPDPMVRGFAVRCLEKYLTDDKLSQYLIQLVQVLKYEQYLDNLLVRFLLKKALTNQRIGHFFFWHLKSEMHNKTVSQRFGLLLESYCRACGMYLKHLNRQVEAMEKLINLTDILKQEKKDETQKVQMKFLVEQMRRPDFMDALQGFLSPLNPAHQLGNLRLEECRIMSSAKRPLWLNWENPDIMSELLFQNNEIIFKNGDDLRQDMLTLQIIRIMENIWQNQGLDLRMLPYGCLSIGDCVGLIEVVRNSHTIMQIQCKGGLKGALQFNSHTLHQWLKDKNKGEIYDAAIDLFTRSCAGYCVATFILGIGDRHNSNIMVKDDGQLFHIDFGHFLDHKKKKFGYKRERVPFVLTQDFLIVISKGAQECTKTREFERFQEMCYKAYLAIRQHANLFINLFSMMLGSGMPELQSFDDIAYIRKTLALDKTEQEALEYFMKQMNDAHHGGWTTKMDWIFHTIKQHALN
Chain of PI3Kα (P27986 whole entry partner): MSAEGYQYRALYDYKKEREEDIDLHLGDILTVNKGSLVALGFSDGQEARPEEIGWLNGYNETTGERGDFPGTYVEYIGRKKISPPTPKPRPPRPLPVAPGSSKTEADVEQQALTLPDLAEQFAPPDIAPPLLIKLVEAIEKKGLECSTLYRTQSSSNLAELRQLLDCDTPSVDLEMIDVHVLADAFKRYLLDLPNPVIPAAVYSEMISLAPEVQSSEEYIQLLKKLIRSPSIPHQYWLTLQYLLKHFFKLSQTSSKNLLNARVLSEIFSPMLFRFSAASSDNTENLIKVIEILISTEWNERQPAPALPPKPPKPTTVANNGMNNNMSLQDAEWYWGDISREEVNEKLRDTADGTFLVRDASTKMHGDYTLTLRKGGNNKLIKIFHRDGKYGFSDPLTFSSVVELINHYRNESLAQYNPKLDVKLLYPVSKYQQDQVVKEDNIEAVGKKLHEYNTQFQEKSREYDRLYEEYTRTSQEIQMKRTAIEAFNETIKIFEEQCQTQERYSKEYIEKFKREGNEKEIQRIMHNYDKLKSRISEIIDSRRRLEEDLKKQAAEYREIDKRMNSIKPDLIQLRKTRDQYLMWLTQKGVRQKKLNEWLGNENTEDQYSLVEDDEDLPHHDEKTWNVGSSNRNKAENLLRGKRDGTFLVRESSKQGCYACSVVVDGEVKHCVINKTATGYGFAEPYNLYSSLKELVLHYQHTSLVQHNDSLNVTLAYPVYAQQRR

As to “N ^1-(2-(3-(3,4-Dichlorophenyl)-3-phenyl-4,5-dihydro-1H-pyrazol-1-yl)thieno[2,3-d]pyrimidine-4-yl)-N^1, N^2,N^2-trimethylethane-1,2-diamine [Compound 13e]”, the IC50 was found to be 10.5 ± 0.54 µM with MCF-7 cancer cell lines (setting [1]), 13.4 ± 0.29 µM in the data set with A549 cancer cell lines (setting [1]) and 8.05 ± 0.05 µM with HepG2 cancer cell lines (setting [1]).
`CN(C)CCN(C)c1nc(N2N=C(c3ccc(Br)cc3)CC2c2ccc(F)cc2)nc2sccc12` (centres unmarked) [Compound 13k, N ^1-(2-(3-(4-Bromophenyl)-5-(4-fluorophenyl)-4,5-dihydro-1H-pyrazol-1-yl)thieno[2,3-d]pyrimidin-4-yl)-N^1,N^2,N^2-trimethylethane-1,2-diamine] registered a melting point of 291 to 292 °C. In the data set on MCF-7 cancer cell lines (setting [2]), this compound came in with an IC50 of 18.39 ± 0.18 µM. For the same compound, half-maximal inhibition with A549 cancer cell lines (setting [3]) (IC50) required 22.7 ± 0.35 µM. In addition, the IC50 in the data set on HepG2 cancer cell lines (setting [4]) is 10.9 ± 0.2 µM.
For `CN(C)CCN(C)c1nc(N2N=C(c3ccccc3)CC2c2ccccc2)nc2sccc12` (centres unmarked) [Compound 13i, N ^1-(2-(3,5-Diphenyl-4,5-dihydro-1H-pyrazol-1-yl)thieno[2,3-d]pyrimidin-4-yl)-N^1,N^2,N^2-trimethylethane-1,2-diamine], in that order: 225 to 227 °C, 5.04 ± 0.06 µM, 9.43 ± 0.1 µM and 6.7 ± 0.14 µM.
Compound `COc1ccc(C2CC(c3ccc(Cl)c(Cl)c3)=NN2c2nc(N(C)CCN(C)C)c3ccsc3n2)cc1` (centres unmarked) [Compound 13a, N ^1-(2-(3-(3,4-Dichlorophenyl)-5-(4-methoxyphenyl)-4,5-dihydro-1H-pyrazol-1-yl)thieno[2,3-d]pyrimidin-4-yl)-N^1,N^2,N^2-trimethylethane-1,2-diamine] came in with a melting point of 232 to 233 °C.
As to `CN(C)CCN(C)c1nc(N2N=C(c3ccc(Cl)c(Cl)c3)CC2c2ccc(Br)cc2)nc2sccc12` (centres unmarked) [Compound 13b, N ^1-(2-(5-(4-Bromophenyl)-3-(3,4-dichlorophenyl)-4,5-dihydro-1H-pyrazol-1-yl)thieno[2,3-d]pyrimidin-4-yl)-N^1,N^2,N^2-trimethylethane-1,2-diamine], the melting point lay in the range of 291 to 294 °C. The compound also displayed an IC50 in the data set with MCF-7 cancer cell lines (setting [2]) of 12.8 ± 0.23 µM. In the data set on A549 cancer cell lines (setting [3]), this compound returned an IC50 of 17.43 ± 0.13 µM. In addition, the midpoint of inhibition with HepG2 cancer cell lines (setting [4]), the IC50, lay at 12.9 ± 0.64 µM.
`Cc1ccc(-c2ccnn2-c2nc(N3CCOCC3)c3sccc3n2)cc1` [Compound 4b, 4-(2-(5-(p-Tolyl)-1H-pyrazol-1-yl)thieno[3,2-d]pyrimidin-4-yl)morpholine] came in with a melting point of 166.8 to 171.5 °C. In the data set with MCF-7 cancer cell lines (setting [5]), the IC50 is > 100 µM. Further, the IC50 in the data set with A549 cancer cell lines (setting [6]) is > 100 µM. Besides, the IC50 in the data set on HepG2 cancer cell lines (setting [7]) is > 100 µM.
As for `Cc1ccc(C2CC(c3ccc(Cl)c(Cl)c3)=NN2c2nc(N(C)CCN(C)C)c3ccsc3n2)cc1` (centres unmarked) [Compound 13g, N ^1-(2-(3-(3,4-Dichlorophenyl)-5-(p-tolyl)-4,5-dihydro-1H-pyrazol-1-yl)thieno[2,3-d]pyrimidin-4-yl)-N^1,N^2,N^2-trimethylethane-1,2-diamine], the melting point lay within 269 to 270 °C. In addition, the IC50 in the data set on MCF-7 cancer cell lines (setting [2]) amounted to 4.98 ± 0.04 µM. The compound further returned an IC50 in the data set on A549 cancer cell lines (setting [3]) of 8.75 ± 0.24 µM. Besides, at mTOR, the IC50 is > 10 µM. Besides, in the data set with HepG2 cancer cell lines (setting [4]), the midpoint of inhibition, the IC50, lay at 6.96 ± 0.44 µM. On PI3Kα, this compound showed an IC50 of 3.31 ± 0.12 µM.
For `c1ccc(-c2ccnn2-c2nc(N3CCOCC3)c3ccsc3n2)cc1` [Compound 7a, 4-(2-(5-Phenyl-1H-pyrazol-1-yl)thieno[2,3-d]pyrimidin-4-yl)morpholine], the melting point lay within 223 to 225 °C. The IC50 in the data set with MCF-7 cancer cell lines (setting [5]) was 25.3 ± 0.93 µM. The compound further registered an IC50 in the data set on A549 cancer cell lines (setting [6]) of 37.6 ± 1.88 µM. The concentration for half-maximal inhibition (IC50) in the data set on HepG2 cancer cell lines (setting [7]) was found to be 20.2 ± 1.15 µM.
The like results for `Fc1ccc(-c2ccnn2-c2nc(N3CCOCC3)c3ccsc3n2)cc1` [Compound 7c, 4-(2-(5-(4-Fluorophenyl)-1H-pyrazol-1-yl)thieno[2,3-d]pyrimidin-4-yl)morpholine] were, in that order, 202 to 205 °C, > 100 µM, > 100 µM and > 100 µM.
For `CN(C)CCN(C)c1nc(N2N=C(c3ccc(Cl)c(Cl)c3)CC2c2ccc(F)cc2)nc2sccc12` (centres unmarked) [Compound 13d, N ^1-(2-(3-(3,4-Dichlorophenyl)-5-(4-fluorophenyl)-4,5-dihydro-1H-pyrazol-1-yl)thieno[2,3-d]pyrimidin-4-yl)-N^1,N^2,N^2-trimethylethane-1,2-diamine], the melting point lay in the range of 244 to 247 °C. Further, the IC50 in the data set on MCF-7 cancer cell lines (setting [2]) amounted to 6.82 ± 0.17 µM. The IC50 in the data set with A549 cancer cell lines (setting [3]) was determined as 9.17 ± 0.32 µM. The IC50 in the data set with HepG2 cancer cell lines (setting [4]) stood at 7.27 ± 0.68 µM.
Turning to `Cc1ccc(-c2ccnn2-c2nc(N3CCOCC3)c3ccsc3n2)cc1` [Compound 7b, 4-(2-(5-(p-Tolyl)-1H-pyrazol-1-yl)thieno[2,3-d]pyrimidin-4-yl)morpholine], the melting point was in the range of 286 to 289 °C. In the data set on MCF-7 cancer cell lines (setting [5]), this compound returned an IC50 of 30.9 ± 1.05 µM. Half-maximal inhibition with A549 cancer cell lines (setting [6]) (IC50) was put at 35 ± 0.97 µM. Also, half-maximal inhibition in the data set with HepG2 cancer cell lines (setting [7]) (IC50) required 33.9 ± 1.13 µM.
Take `CN(C)CCN(C)c1nc(N2N=C(c3ccc(F)cc3)CC2c2ccc(F)cc2)nc2sccc12` (centres unmarked) [Compound 13c, N ^1-(2-(3,5-Bis(4-fluorophenyl)-4,5-dihydro-1H-pyrazol-1-yl)thieno[2,3-d]pyrimidin-4-yl)-N^1,N^2,N^2-tri-methylethane-1,2-diamine]: the melting point was in the range of 256 to 257 °C. In the data set on MCF-7 cancer cell lines (setting [2]), this compound displayed an IC50 of 6.51 ± 0.31 µM. The same compound displayed an IC50 with A549 cancer cell lines (setting [3]) of 9.23 ± 0.02 µM. Moreover, at mTOR, the IC50 was > 10 µM. Moreover, in the data set on HepG2 cancer cell lines (setting [4]), the 50% inhibitory concentration (IC50) stood at 6.66 ± 0.13 µM. The IC50 against PI3Kα turned out to be 4.62 ± 0.54 µM.
For `Clc1ccc(-c2ccnn2-c2nc(N3CCOCC3)c3ccsc3n2)cc1` [Compound 7d, 4-(2-(5-(4-Chlorophenyl)-1H-pyrazol-1-yl)thieno[2,3-d]pyrimidin-4-yl)morpholine], the melting point fell in the range of 280 to 282 °C. Also, the IC50 in the data set on MCF-7 cancer cell lines (setting [5]) is > 100 µM. The IC50 in the data set with A549 cancer cell lines (setting [6]) was > 100 µM. The IC50 in the data set with HepG2 cancer cell lines (setting [7]) is > 100 µM.
`CN(C)CCN(C)c1nc(N2N=C(c3ccc(Br)cc3)CC2c2ccccc2)nc2sccc12` (centres unmarked) [Compound 13l, N ^1-(2-(3-(4-Bromophenyl)-5-phenyl-4,5-dihydro-1H-pyrazol-1-yl)thieno[2,3-d]pyrimidin-4-yl)-N^1,N^2,N^2-trimethylethane-1,2-diamine] displayed a melting point of 261 to 262 °C. Besides, in the data set on MCF-7 cancer cell lines (setting [2]), the midpoint of inhibition, the IC50, lay at 17.2 ± 0.48 µM. In the data set on A549 cancer cell lines (setting [3]), this compound had an IC50 of 22.95 ± 0.15 µM. In addition, the IC50 in the data set on HepG2 cancer cell lines (setting [4]) is 15.8 ± 1.23 µM.
In the case of `CS(=O)(=O)N1CCN(Cc2cc3nc(-c4cccc5[nH]ncc45)nc(N4CCOCC4)c3s2)CC1` [GDC-0941, reference compound], the IC50 with MCF-7 cancer cell lines (setting [5]) came out at 0.07 ± 0.03 µM; with MCF-7 cancer cell lines (setting [2]), 0.2 ± 0.08 µM; in the data set on A549 cancer cell lines (setting [6]), 6.99 ± 0.21 µM; with HepG2 cancer cell lines (setting [7]), 0.2 ± 0.08 µM; in the data set on HepG2 cancer cell lines (setting [4]) it was 0.07 ± 0.03 µM.
Consider `COc1ccc(C2CC(c3ccc(F)cc3)=NN2c2nc(N(C)CCN(C)C)c3ccsc3n2)cc1` (centres unmarked) [Compound 13j, N ^1-(2-(3-(4-Fluorophenyl)-5-(4-methoxyphenyl)-4,5-dihydro-1H-pyrazol-1-yl)thieno[2,3-d]pyrimidin-4-yl)-N^1,N^2,N^2-trimethylethane-1,2-diamine], for which the melting point is 286 to 287 °C. This compound also registered a half-inhibitory concentration (IC50) in the data set with HepG2 cancer cell lines (setting [4]) of 83.86 ± 0.17 µM.
`c1ccc(-c2ccnn2-c2nc(N3CCOCC3)c3sccc3n2)cc1` [Compound 4a, 4-(2-(5-Phenyl-1H-pyrazol-1-yl)thieno[3,2-d]pyrimidin-4-yl)morpholine] registered a melting point of 243.6 to 244.8 °C. The IC50 with MCF-7 cancer cell lines (setting [5]) is > 100 µM. The IC50 with A549 cancer cell lines (setting [6]) is > 100 µM. The IC50 with HepG2 cancer cell lines (setting [7]) is > 100 µM.
As for `Cc1ccc(C2CC(c3ccc(Br)cc3)=NN2c2nc(N(C)CCN(C)C)c3ccsc3n2)cc1` (centres unmarked) [Compound 13h, N ^1-(2-(3-(4-Bromophenyl)-5-(p-tolyl)-4,5-dihydro-1H-pyrazol-1-yl)thieno[2,3-d]pyrimidin-4-yl)-N^1,N^2,N^2-trimethylethane-1,2-diamine], the melting point was in the range of 272 to 273 °C. This compound registered an IC50 in the data set with A549 cancer cell lines (setting [3]) of 5.43 ± 0.17 µM. Also, at mTOR, the IC50 was > 10 µM. In the data set on HepG2 cancer cell lines (setting [4]), this compound had an IC50 of 4.45 ± 0.25 µM. On PI3Kα, this compound showed an IC50 of 7.16 ± 0.27 µM.
As to `Fc1ccc(-c2ccnn2-c2nc(N3CCOCC3)c3sccc3n2)cc1` [Compound 4c, 4-(2-(5-(4-Fluorophenyl)-1H-pyrazol-1-yl)thieno[3,2-d]pyrimidin-4-yl)morpholine], the melting point was 228 to 231 °C. In addition, in the data set on MCF-7 cancer cell lines (setting [5]), the IC50 was > 100 µM. For the same compound, in the data set with A549 cancer cell lines (setting [6]), the IC50 was > 100 µM. Moreover, the IC50 in the data set on HepG2 cancer cell lines (setting [7]) is > 100 µM.
For the compound `Clc1ccc(-c2ccnn2-c2nc(N3CCOCC3)c3sccc3n2)cc1` [Compound 4d, 4-(2-(5-(4-Chlorophenyl)-1H-pyrazol-1-yl)thieno[3,2-d]pyrimidin-4-yl)morpholine], the melting point lay in the range of 250 to 251 °C. Further, the IC50 in the data set with MCF-7 cancer cell lines (setting [5]) is > 100 µM. For the same compound, the IC50 in the data set with A549 cancer cell lines (setting [6]) is > 100 µM. The IC50 with HepG2 cancer cell lines (setting [7]) was > 100 µM.

Source of the values: paper PMC9072010, “Synthesis and bioevaluation of thienopyrimidines bearing a pyrazoline unit as selective PI3Kα inhibitors” (RSC Advances, 2019).
